Experimental data published in a melting point compilation (Tetko et al.; mined from patent text by program, amines drawn as free bases though some values may be those of a salt).

melting point | Structure (SMILES)
52 to 53 °C | CCCCCCCCCCCCCCCCOC(=O)c1cccc(N)c1
97 to 99 °C | C[C@@H]1[C@@H](C(=O)Cc2ccccc2)C(=O)N1OCc1ccccc1
120 °C | CCOC(=O)N1CC(=O)NC(=O)N1Cc1ccc(Cl)cc1
174 to 176 °C | CCC(C)(C)c1cc(-c2cccc(C=C3SC(N4CCOCC4)=NC3=O)c2)ccc1O
111 to 113 °C | O=[N+]([O-])c1ccc(Oc2ccc(C(F)(F)F)cc2Cl)cc1Oc1ccc(C(F)(F)F)cc1Cl
141 to 143 °C | CCCCCC(=O)NC(C)(C)C(=O)O
93 to 96 °C | CCC(=O)NCCC1CCc2cc(F)c(O)cc21 (stereo not drawn)
277 °C | Cc1cccc(C)c1CNc1cc(Br)cc2c1nc(C)n2O
75 to 77 °C | COc1c(C)c(C)c(O)c(C)c1CN(C)CCOc1cc(C)ccc1C(C)C
222 °C | NC(=O)C1=C(O)C(NC(=S)c2ccccc2)C2CC3Sc4c(Cl)ccc(O)c4C(=O)C3=C(O)C2(O)C1=O (stereo not drawn)
95 to 96 °C | CCOC(=O)c1c(C)nc(-c2ccccc2)nc1-c1ccncc1
263 to 264 °C | CCCNC1=NS(=O)(=O)c2sc(C)cc2N1
165 to 166 °C | C#CCc1c(C)nc2c(NCc3c(C)cccc3NC(=S)NC(=O)c3ccccc3)cccn12
60 to 63 °C | CCCCCCC/C=C/C(=O)NC
85 to 88 °C | COc1ccc(C)cc1-c1ccc(S(=O)(=O)N2c3ccccc3CC2C(=O)NCCOc2ccc(CC(=O)O)cc2)cc1 (stereo not drawn)
171 to 172 °C | CCO/C(=N/O)C1Cc2cc(C(=O)c3ccccc3F)c(O)c(Cl)c2O1 (stereo not drawn)
76 to 77 °C | O=C(NCCCCC1CCSS1)N1CCSC1 (stereo not drawn)
92.5 to 94 °C | CONS(=O)(=O)c1ccccc1Cl
169 to 171 °C | O=C(c1cc(O)c(O)c([N+](=O)[O-])c1)c1ccccc1F
139 to 141 °C | Cn1c(C(F)(F)F)cc(=O)n(-c2c(F)cc(Cl)c3oc(CO)cc23)c1=O
112 to 118 °C | CC1(C)OC2OC(CN3C(=O)C4(COc5cc6c(cc54)OCCO6)c4ccccc43)C3OC(C)(C)OC3C2O1 (stereo not drawn)

melting point | Structure (SMILES)
234 to 235 °C | O=C1CCn2c(-c3ccccc3)nc3cc(Cl)cc1c32
134 to 135 °C | CC(C)(C)OC(=O)N1CC=C(c2c(F)cc(N)cc2F)CC1
318 to 328 °C | c1ccc2oc(-c3ccc(-c4nc5ccccc5o4)cc3)nc2c1
116 to 118 °C | CCCCC1(CCCC)c2cc(Br)ccc2-c2ccc(N(c3ccccc3)c3ccccc3)cc21
115 to 116 °C | Cc1c2c(c(Cc3ccc(C(C)C)cc3)c(C)c1NCc1ccccc1)OCC2
153 °C | O=C(c1ccc(I)cc1)c1ccc2nc(Cl)nc(-c3cccc(Cl)c3)c2c1
109 to 110 °C | CCOc1cc(C(O)c2ccccn2)ccc1OCc1ccccc1 (stereo not drawn)
228 to 230 °C | C=CCOc1ccc(C(=O)C#Cc2c[nH]c3ccccc23)c(O)c1
68 to 71 °C | COc1ccc(OC(=O)CN2CCN(Cc3ccc(OC)c(OC)c3OC)CC2)cc1
77 to 81 °C | COc1cccc(C(=O)N(CC=O)c2ccccc2OC)c1
84 to 86 °C | Cc1ccc(OC2CN(S(=O)(=O)c3ccc(C)cc3)CCc3ccccc32)cc1 (stereo not drawn)
184 to 186 °C | CCc1cc(-c2cc(N)n3nc(-c4ccco4)nc3c2)ccn1
179 to 181 °C | CCCNc1nc(-c2ccc(OC)c(OC)c2)nc2sc(C#N)c(C)c12
194 to 195 °C | C=CCNCCC(=O)O
110 to 150 °C | Cc1ccc(CN(C)C(=O)c2cnn(C)c2C(=O)Nc2ccn3nc(-c4ccccc4)nc3c2)cn1
200 to 202 °C | NC(=O)c1cc2cc(Cl)ccc2o1
162 to 164 °C | O=C(O)C12CC3CC(F)(CC(F)(C3)C1)C2
52 to 58 °C | COC=C(C(=O)OC)c1ccccc1CSc1ccc2ccccc2c1
225 °C | NC(=O)c1cc(C(=O)c2ccccc2)ccc1N
219 to 223 °C | CC(=O)N(Cc1ccc(C(=O)O)cc1)c1ccc2c(c1)C(C)(C)CCC2(C)C
87 to 89 °C | Clc1ccc(Oc2cncc3sccc23)cc1

The remaining lines, values behind:

Structure (SMILES) | melting point
Nc1nc(Nc2ccc3c(c2)OCO3)sc1C(=O)c1ccccc1[N+](=O)[O-] | 200 to 202 °C
O=C1Nc2cc(F)ccc2C1c1ncnc2c1cnn2C1CCCC1 (stereo not drawn) | 230 to 233 °C
CNC(=O)[C@@H]1CCCC[C@@H]1Nc1nc(Cl)ncc1Cl (relative stereo) | 108 °C
CCOC(=O)Nn1cccc1C(=O)c1ccccc1Cl | 90 to 92 °C
O=C(CCCl)c1ccc2c(c1)CCC2 | 63.5 to 65.1 °C
CC(C)(C)C(=O)c1c(CC(C)(C)C(=O)O)n(Cc2ccc(Cl)cc2)c2ccc(OCc3ccc4sccc4n3)cc12 | 193 to 194 °C
N#Cc1c(Cl)c(F)cc(C(=O)Cl)c1Cl | 73 to 75 °C
Cc1cccc(COc2cccc(OCc3cnc4ccccc4n3)c2)c1C(=O)O | 57 to 60 °C
Nc1cc(Cl)ccc1Oc1c(C(=O)O)n(Cc2ccccc2)c2ccccc12 | 218 to 219 °C
CC(C)OC(=O)C(C(=O)c1ccc2c(c1)OCO2)=C1SC=CS1 | 136 to 138 °C
C=CCn1cc(C(=O)OCC)c(=O)c2cc(F)c(Cl)cc21 | 162 to 164 °C
Cc1c(Cc2cccc(C(F)(F)F)c2)sc2c(-c3cc(C(N)=O)ccn3)cccc12 | 193 to 194 °C
Oc1nn(Cc2ccccc2)cc1CCCC1OCCO1 | 93 to 94 °C
CCCCc1nc2cccc(C(=O)NC(C)C)c2n1Cc1ccc(-c2ccccc2-c2nnn[nH]2)cc1 | 247 to 249 °C
CS(=O)(=O)c1cccc(NC(=O)c2cnn3c(C(F)(F)F)cc(-c4ccc(C(F)(F)F)c(F)c4)nc23)c1 | 246 °C
CC(C)(CC(=O)O)CC(=O)NC1(C(=O)NCCCCNc2ncccn2)Cc2ccccc2C1 | 70 to 83 °C
C=C(Cn1ccnc1)c1ccccc1O | 139 to 141 °C
Cc1nc2[nH]c(=O)[nH]c2cc1-c1ccc(NC(=O)C(F)(F)F)cc1 | > 300 °C
ClCc1cc(I)cc(I)c1I | 97 to 98 °C

Structure (SMILES) | melting point
CC1(C)CS(=O)(=O)CC(C)(C)N1N=O | 184 °C
COCCCOc1cc(C[C@@H](C[C@H](N)[C@@H](O)C[C@H](C(=O)NCC(C)(C)C(N)=O)C(C)C)C(C)C)ccc1OC | 95 to 104 °C
Nc1ccc(F)c(SC(F)(F)F)c1 | 120 °C
CCCCCC(C(=O)O)c1cccc(Oc2ccccc2C)c1O (stereo not drawn) | 113 to 114 °C
NC(=O)NCc1ccc(CNC(=O)[C@@H](CCCNC(N)=N[N+](=O)[O-])NC(=O)Cc2ccc(O)cc2)cc1 | 168 to 170 °C
CC(C)(c1ccccc1)N1CCC(=O)C(c2ccccc2)C1=O (stereo not drawn) | 129 to 132 °C
CCn1c(C)c(C(c2ccco2)S(=O)(=O)c2ccc(C)cc2)c2ccccc21 (stereo not drawn) | 99.8 to 105 °C
COc1nc2cc(Cl)cc(Cl)c2cc1Br | 135 to 138 °C
Cc1nc(-c2ccc(-c3ccccc3S(=O)(=O)Nc3onc(C)c3C)cc2)oc1C | 96 to 102 °C
O=C1N=C(c2ccccc2OCC2CC2)N=C2N=CN=C12 | 259 to 260 °C
Cc1cc(C2=NOC(c3cc(Cl)cc(Cl)c3)(C(F)(F)F)C2)ccc1C(=O)Nc1cncnc1 (stereo not drawn) | 207 to 211 °C
COc1cc2[nH]c(C)c(CCN3CCN(NC(=O)c4ccc(F)cc4)CC3)c2cc1OC | 116 to 119 °C
COc1cc2c(cc1NC(=S)Nc1ccc([N+](=O)[O-])cc1)C(C)(C)OCC2(C)C | 198 to 199 °C
C1=CC(n2nc(-c3ccc4ccccc4c3)cc2-c2ccccc2)(n2nc(-c3ccc4ccccc4c3)cc2-c2ccccc2)CC=C1c1ccccc1 | 287 °C
C[C@]12CCC(=O)N[C@@H]1CCc1cc(SCc3ccccc3)ccc12 | 172 to 174 °C
O=S(=O)(O)COc1ccc(Cl)cc1Br | > 315 °C
CCC(=O)C(Oc1cc(C#N)cc(C#N)c1)C(=O)OC (stereo not drawn) | 93 to 95 °C
CCCCOc1c(CNC(=O)OC(C)(C)C)n(CC(C)C)c(=O)c2ccc(NC(C)=O)cc12 | 174 to 175 °C
CS(=O)(=O)c1ccc(-c2cocc2-c2ccc(F)cc2)cc1 | 160 to 161 °C

Structure (SMILES) | melting point
COc1ccc(C2CNC(=O)NC2)cc1OCCCCc1ccccc1 | 142 to 143 °C
CN1C(=O)C(C(=O)Nc2ccc(F)cc2)Sc2ccccc21 (stereo not drawn) | 158 to 160 °C
CCS(=O)c1cc(C(=O)O)c(OC)cc1N (stereo not drawn) | 158 °C
CCC(=O)N(CC)c1cccc(-c2ccc(Cl)nn2)c1 | 118 to 119 °C
Cc1oc(-c2ccccc2)nc1COc1ccc(C(=O)Nc2nn(-c3ccccc3)cc2C=O)cc1 | 185 to 186 °C
Nc1ncc(-c2ccccc2)nc1Sc1ccc(F)cc1 | 161 to 164 °C
C=CCC(CC=C)C(=O)O[C@H]1C[C@H](O)C=C2C=C[C@H](C)[C@H](CC[C@@H]3C[C@@H](O)CC(=O)O3)[C@H]21 | 159 to 160 °C
Cc1c(C2CCC(c3ccccc3)(N(C)C)CC2)[nH]c2ccc(C(F)(F)F)cc12 (stereo not drawn) | 204 to 217 °C
CCCCCCN(C)c1ccc(C=C2SC(=S)N(Cc3nnn[nH]3)C2=O)cc1 | 198 to 200 °C
CCOc1cc([C@@H](CC(=O)N(C)C)N2Cc3cccc(NCC(C)(C)C)c3C2=O)ccc1OC | 111 to 113 °C
COC(=O)C1=C(C)NC(C)=C(C(=O)OCCCCCCN2C(=O)c3ccccc3C2=O)C1c1cccc([N+](=O)[O-])c1 (stereo not drawn) | 134 to 140 °C
CC(C)CCn1ccc(-c2ccc(NC3CCOCC3)cc2)c(Cl)c1=O | > 300 °C
Cc1cc(N)cc(C)c1Oc1ccc(O)c(Cc2ccc(F)cc2)c1 | 179 to 182 °C
O=C(Nc1ccc(Cl)cc1)c1ccccc1F | 94.5 to 96.2 °C
CCOC(=O)C1=C(c2cccs2)Nc2n[nH]cc2C1c1ccccc1Cl (stereo not drawn) | 200 °C
CO[C@H](C)C(=O)N[C@H]1CC[C@H](CCN2CCN(c3nccc4c3CCO4)CC2)CC1 | 159 °C
CN(C)C=Cc1[nH]c(=O)ccc1C(=O)c1ccco1 | 238 to 240 °C
CCCCc1oc2ccccc2c1C(=O)Nc1ccc2c(Br)c(OCC#N)ccc2c1 | 155 to 159 °C
